In ChEMBL document CHEMBL1156286, “Inhibition of eEF2-K by thieno[2,3-b]pyridine analogues” (Bioorg Med Chem Lett, 2010) one finds IC50 and EC50 data, which are given here for 36 compounds.

Assay [1] concerns the target T1, Eukaryotic elongation factor 2 kinase (Homo sapiens, UniProt O00418).
T1 sequence (O00418 whole entry): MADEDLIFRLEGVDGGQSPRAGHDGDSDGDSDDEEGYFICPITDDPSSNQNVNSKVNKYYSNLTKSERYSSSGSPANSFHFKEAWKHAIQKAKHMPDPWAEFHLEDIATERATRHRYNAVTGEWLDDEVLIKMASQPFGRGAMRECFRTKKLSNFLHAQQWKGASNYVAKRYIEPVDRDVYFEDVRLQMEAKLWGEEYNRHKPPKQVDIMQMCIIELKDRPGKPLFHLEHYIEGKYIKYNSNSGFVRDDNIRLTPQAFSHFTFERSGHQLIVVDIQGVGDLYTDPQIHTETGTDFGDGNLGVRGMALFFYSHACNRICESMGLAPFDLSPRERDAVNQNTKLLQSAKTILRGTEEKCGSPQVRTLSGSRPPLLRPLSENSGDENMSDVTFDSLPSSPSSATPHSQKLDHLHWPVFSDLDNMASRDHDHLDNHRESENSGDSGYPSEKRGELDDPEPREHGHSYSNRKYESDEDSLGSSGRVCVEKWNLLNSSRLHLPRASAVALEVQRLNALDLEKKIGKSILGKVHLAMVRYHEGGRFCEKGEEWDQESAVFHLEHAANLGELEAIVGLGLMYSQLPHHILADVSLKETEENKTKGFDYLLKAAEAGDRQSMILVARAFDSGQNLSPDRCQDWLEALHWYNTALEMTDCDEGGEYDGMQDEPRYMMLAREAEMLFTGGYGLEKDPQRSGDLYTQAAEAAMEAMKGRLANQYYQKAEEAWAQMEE
Kind of assay: Inhibition of GST tagged eEf2K expressed in Escherichia coli by fluorometric method.

In assay [2] the test system is HCT-116. As to the kind of experiment: Cytotoxicity against human HCT116 cells after 72 hrs. It counts as functional, cell-based. As to conditions: HCT-116, 72 h.
In assay [3] the test system is A549. Kind of assay: Cytotoxicity against human A549 cells after 72 hrs. It counts as functional, cell-based. As to conditions: A549, 72 h.

The term IC50 denotes the concentration that gives 50% inhibition. The compound `CC1CCCc2c1nc1sc(C(N)=O)c(N)c1c2-c1ccco1` (racemic) gave an IC50 in assay [1] greater than 20 µM.
In turn, `COc1ccc(-c2cc(-c3ccco3)c3c(N)c(C(N)=O)sc3n2)c(OC)c1` had a 50% inhibitory concentration (IC50) in assay [1] greater than 10 µM.
Compound `NC(=O)c1sc2nc3c(c(-c4ccc(Cl)cc4)c2c1N)CCCCCC3` came in with an IC50 in assay [1] of 1.1 µM. This counts as single-digit micromolar.
In general, EC50 refers to the concentration at which the effect is half-maximal. Read a high EC50 as weaker potency. In assay [1], `NC(=O)c1sc2nc3c(c(-c4ccc(Cl)o4)c2c1N)CCCCCC3` gave a 50% inhibitory concentration (IC50) of 0.28 µM. In addition, the EC50 in assay [2] is 100 µM; in assay [3], 64 µM.
On to `Cc1cccnc1-c1c2c(nc3sc(C(N)=O)c(N)c13)CCCCCC2`, for which the half-maximal inhibitory concentration (IC50) in assay [1] was greater than 20 µM.
As to `COC(=O)c1oc(-c2c3c(nc4sc(C(N)=O)c(N)c24)CCCCCC3)cc1C`, the 50% inhibitory concentration (IC50) in assay [1] was greater than 20 µM.
As to `Nc1ncnc2c1sc1nc3c(c(-c4ccco4)c12)CCCCCCC3`, in assay [1], the half-inhibitory concentration (IC50) worked out at 0.35 µM.
As to `NC(=O)c1sc2nc3c(cc2c1N)CCCCCC3`, it took 2.5 µM to reach half-maximal inhibition in assay [1] (IC50). Besides, the concentration giving a half-maximal response (EC50) in assay [2] and in assay [3] was 38 µM each time.
Consider `NC(=O)c1sc2nc3c(c(-c4ccoc4)c2c1N)CCCCCC3`, for which, in assay [1], inhibition was half-maximal at 1.1 µM (IC50).
Still for that read-out and setting: next, `NC(=O)c1sc2nc3c(c(C4CC4)c2c1N)CCCCCC3`: 2 µM; `NC(=O)c1sc2nc3c(c(-c4ccc(CO)o4)c2c1N)CCCCCC3`: 0.8 µM.
Turning to `NC(=O)c1sc2nc3c(c(-c4ccco4)c2c1N)CCCCCCC3`, the EC50 in assay [2] came out at 17 µM.
`CCc1ccc(-c2c3c(nc4sc(C(N)=O)c(N)c24)CCCCCC3)o1`: in assay [1], half-maximal inhibition (IC50) required 0.66 µM.
In assay [1], `Nc1ncnc2c1sc1nc3c(c(-c4ccco4)c12)CCCCC3` came in with a half-inhibitory concentration (IC50) of 4.7 µM. The concentration giving a half-maximal response (EC50) in assay [2] is greater than 100 µM; in assay [3], 17 µM.
Consider `NC(=O)c1sc2nc3c(c(-c4cc5ccccc5o4)c2c1N)CCCCCC3`, for which, in assay [1], the IC50 was 0.33 µM.
For `NC(=O)c1sc2nc3c(c(/C=C/c4ccco4)c2c1N)CCCCCC3`, 0.32 µM corresponded to half-maximal inhibition in assay [1] (IC50). Also, the half-maximal effective concentration (EC50) came out at 19 µM in assay [2] and 15 µM in assay [3].
With `NC(=O)c1sc2nc3c(c(-c4ccccc4)c2c1N)CCCCCC3`, the IC50 in assay [1] was greater than 20 µM.
Consider `Nc1ncnc2c1sc1nc(N3CCOCC3)c3c(c12)CCCC3`, for which the IC50 in assay [1] was found to be 0.22 µM. Besides, the EC50 came out at 29 µM in assay [2] and 6.7 µM in assay [3].
`Nc1ncnc2c1sc1nc3c(cc12)CCCCCCC3`: it took 3.7 µM to reach half-maximal inhibition in assay [1] (IC50).
The same measure, in the same setting: next, `NC(=O)c1sc2nc3c(c(CCc4ccccc4)c2c1N)CCCCCC3`: greater than 20 µM.
The same measure, in the same setting: next, `NC(=O)c1sc2nc3c(c(-c4ccco4)c2c1N)CCCCCC3`: 0.64 µM; `NC(=O)c1sc2nc3c(c(-c4ccc(C(F)(F)F)o4)c2c1N)CCCCCC3`: 0.3 µM; `CC(C)Cc1c2c(nc3sc(C(N)=O)c(N)c13)CCCCCC2`: 0.86 µM.
Compound `CC(C)=CCCC(C)c1c2c(nc3sc(C(N)=O)c(N)c13)CCCCCC2` (racemic) had a concentration for half-maximal inhibition (IC50) in assay [1] of 10 µM.
Regarding `NC(=O)c1sc2nc3c(c(-c4nccs4)c2c1N)CCCCCC3`, in assay [1], inhibition was half-maximal at 1.4 µM (IC50).
Still for that read-out and setting: next, `Cn1cccc1-c1c2c(nc3sc(C(N)=O)c(N)c13)CCCCCC2`: 0.99 µM; `NC(=O)c1sc2nc(CC3CCCCC3)cc(-c3ccco3)c2c1N`: greater than 10 µM.
The same measure, in the same setting: next, `Cc1c2c(nc3sc(C(N)=O)c(N)c13)CCCCCC2`: 1.1 µM; `Cc1ccsc1-c1c2c(nc3sc(C(N)=O)c(N)c13)CCCCCC2`: 0.46 µM; `Cc1cccc(-c2c3c(nc4sc(C(N)=O)c(N)c24)CCCCCC3)c1`: 1.2 µM.
The compound `COc1ccc(Cc2cc(-c3ccco3)c3c(N)c(C(N)=O)sc3n2)c(OC)c1` displayed a half-maximal inhibitory concentration (IC50) in assay [1] greater than 10 µM.
The same measure, in the same setting: next, `Cc1cc(-c2c3c(nc4sc(C(N)=O)c(N)c24)CCCCCC3)oc1C`: 1.1 µM; `NC(=O)c1sc2nc3c(c(-c4ccc(Cl)c(Cl)c4)c2c1N)CCCCCC3`: 0.99 µM.
Consider `NC(=O)c1sc2nc3c(c(-c4ccco4)c2c1N)CCCCC3`, for which half-maximal inhibition in assay [1] (IC50) was put at 1.1 µM.
Same read-out and setting: to `NC(=O)c1sc2nc3c(c(-c4ccco4)c2c1N)CCCCCCCC3` belongs greater than 20 µM.
Still for that read-out and setting: to `COc1ccc(F)c(-c2c3c(nc4sc(C(N)=O)c(N)c24)CCCCCC3)c1` belongs 1.3 µM.
